Assay results from patent US12357598B2, “Treatment of neurodevelopmental disorders” (THE REGENTS OF THE UNIVERSITY OF CALIFORNIA, priority 2018, dated 2025).

Columns and labels:
[1] = Measurement of glyphosate in the blood (LC/MS/MS); format: in vivo, mouse; details: mothers treated with 0.095% glyphosate E5-P21 and their offspring
Description: Measurement of glyphosate in the blood. Water or 0.095% glyphosate was given to pregnant mice from E5 to P21, as described above. At weaning (P21), mothers and male offspring mice were deeply anesthetized with isoflurane and plasma was collected. The plasma samples were stored at −80° C. before assay. Measurement of glyphosate in the plasma was performed using LC/MS/MS at UC Davis.
The 40 μL of internal standard (2 μg/mL of glyphosate-2-^13C solution in methanol) and 40 μL of methanol were added to 20 μL of plasma. The spiked sample was vortexed for 5 minutes and then centrifuged at […] for another 5 minutes. The supernatants were transferred for the followed LC/MS/MS measurement, which uses Waters Acquity UPLC system (Waters, Milford, MA) interfaced with a QTRAP 6500+ mass spectrometer (Sciex, Redwood City, CA) using electrospray source. The separation was achieved on a Waters Acquity BEH C18 50×2.1 mm 1.7 μm column with mobile phases of water with 0.1% of formic acid as mobile phase A and acetonitrile with 0.1% of formic acid as mobile phase B. The gradient was shown in Table 10. All the parameters on the mass spectrometer were optimized with pure standards of glyphosate and glyphosate-2-^13C (purchased from Millipore Sigma, Burlington MA) under positive MRM mode.

[2] = test system: Ephx2 mRNA; assay: Quantitative RT-PCR of Ephx2 mRNA after maternal glyphosate exposure; format: in vivo, mouse; details: juvenile offspring (P28) after maternal glyphosate exposure vs water
Text: Gene expression analysis by quantitative real-time PCR. At juvenile (P28) stage, mice were sacrificed, and their brains were removed for measurement of gene expression of Ephx2 mRNA. Brain regions such as PFC, hippocampus, and striatum were dissected from brain on ice. A quantitative RT-PCR system (Step One Plus, Thermo Fisher Scientific, Yokohama, Japan) was used to measure mRNAs. The specific mRNA transcripts were quantified by TaqManGene Expression assays (Thermo Fisher Scientific, Yokohama, Japan). Expression levels of Ephx2 (Mm01313813_m1) was measured in brain tissue. Total RNA was extracted by use of an RNeasy Mini Kit (Qiagen, Hilden, Germany). The purity of total RNA was assessed by Biophotometer plus (Eppendorf, Hamburg, Germany). The RNA samples were used in the first strand cDNA synthesis with High Capacity cDNA Reverse Transcription Kit (#4368813 Thermo Fisher Scientific, Yokohama, Japan). All samples were tested in triplicate and average values were used for quantification. The average values were normalized to Vic-labeled Actb mRNA (Cat #4352341E: pre-developed TaqMan Assay Reagents, Thermo Fisher Scientific, Yokohama, Japan).

O=C(O)CNCP(=O)(O)O [glyphosate]
blood levels of glyphosate on P21 (weaning) [1]: could detect | gene expression of sEH (or Ephx2) mRNA in the PFC, hippocampus, and striatum [2]: significantly higher
